From US20120095024A1, “TOLUIDINE SULFONAMIDES AND THEIR USE” (Elara Pharmaceuticals GmbH, priority 2008, published 2012)

Experiments:
[1] = test system: HG1 cells; test: Cell proliferation assay (ATPlite), HG-1; assay type: cell-based; settings: inhibition of cell proliferation, 72 h
Protocol: MCF-7 human breast adenocarcinoma cells and HL-60 acute promyelocytic leukaemia cells were obtained from ATCC (LGC Promochem). HG-1 multiple myeloma cells were obtained from Dr. D. Hose (DKFZ Heidelberg). The CellSensor® HRE-bla HCT116 cell line (colorectal carcinoma) was obtained from Invitrogen.
Cells were grown under humidified 95% air, 5% CO2 at 37° C. in Dulbecco's modified Eagle's medium (DMEM: MCF-7) or RPMI 1640 medium (RPMI: HL-60, HG-1) supplemented with 10% fetal bovine serum (FBS), 100 U/ml penicillin and 100 μg/ml streptomycin, 2 mM L-glutamine, and 2 ng/ml IL-6 (for the HG-1 cell line only). The HCT116 cell line was grown under the same atmospheric conditions in McCoy's 5A medium supplemented with 10% FBS and penicillin/streptomycin as above, in addition to blasticidin as a selection marker at a final concentration of 5 μg/ml.
Cell proliferation experiments were carried out in 96-well tissue culture plates with seeding of 2000 cells/well (MCF-7) or 1000 cells/well (HL-60, HG-1) in 100 μl of the relevant medium. Cells were subsequently incubated under the conditions mentioned for 24 h prior to addition of compounds.
For the determination of compound EC50 values, 10 μl compounds at 11× concentrations in 5.5% DMSO were added to the wells at various concentrations yielding a final constant percentage of 0.5% DMSO at the desired 1× compound concentration. As a positive control, cells were treated with 5.5% DMSO. The cells were then incubated for a further 72 h prior to the measurement.
To determine the degree of inhibition of cell proliferation, cells were treated with ATPlite solution according to the manufacturer's instructions (PerkinElmer, ATPlite 1-step Luminescence ATP Detection Assay System) and luciferase readout measured on an Envision HTS multilabel plate reader (PerkinElmer) in luminescence mode according to established protocols. Raw data were imported into an ActivityBase database (IDBS, ID Business Solutions) and EC50 values calculated using the IDBS program ActivityBase XE. Table 2A and 2B show the IC50 values obtained in the above-outlined cell proliferation assay for exemplary compounds of the invention.

[2] = test system: MCF7 cells; test: Cell proliferation assay (ATPlite), MCF-7; assay type: cell-based, human; settings: Homo sapiens, inhibition of cell proliferation, 72 h
Procedure, shortened: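 Cells seeded (MCF-7 2000/well, HG-1 1000/well in RPMI with 2 ng/ml IL-6), then after 24 h exposed to compound at 0.5% DMSO final for 72 h. Proliferation read as ATP luminescence (ATPlite); EC50 calculated from the dose-response.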

[3] = test system: HIF mediated transcription; test: Inhibition of activation of HIF mediated transcription under hypoxic conditions (CellSensor HRE-bla HCT-116); assay type: cell-based; settings: Homo sapiens; HRE-bla HCT-116 cells, deferoxamine-induced hypoxia, 24 h
Protocol: Inhibition of an activated HIF signaling response under chemically-induced hypoxic conditions due to compound treatment was determined using the CellSensor® HRE-bla HCT-116 stably transfected reporter cell line from Invitrogen according to the manufacturer's instructions. HIF is a transcriptional factor composed of the constitutively expressed HIF1β subunit and one of three HIFα subunits (HIF1α, HIF2α, HIF3α). This assay is responsive towards HIFa activity in general. In one example, HIF-1, when stabilized by hypoxic conditions, upregulates several genes to promote cell survival in low-oxygen conditions. These include glycolysis enzymes, which allow ATP synthesis in an oxygen-independent manner, and vascular endothelial growth factor (VEGF), which promotes angiogenesis. HIF-1 acts by binding to HIF-responsive elements (HREs) in promoters that generally contain the sequence NCGTG.
Cells were maintained as described previously and seeded into 384-well, clear-bottom plates (Corning 3712) at 15000 cells/well in 32 μl assay medium (Opti-MEM [Invitrogen], 0.5% FBS, 100 U/ml penicillin, 100 μg/ml streptomycin, 0.1 mM non-essential amino acids [NEAA], 1 mM sodium pyruvate, 5 mM HEPES [pH 7.3]). Following a 2 h incubation period, compounds (4 μl) were subsequently added to the cells at 10× concentrations in 5% DMSO and incubated under normal conditions for 30 min. To induce hypoxic conditions, 4 μl of a 2 mM deferoxamine (DFO) solution was added to the cells followed by 24 h incubation under standard assay conditions (as described). Control wells included wells containing only medium (no cells) and wells treated with 0.5% DMSO instead of compound.
Prior to the readout, the Substrate Loading Solution was prepared as described in the manufacturer's protocol and 10 μl added to each well. Following a further 2 h incubation period at room temperature and in the dark, fluorescence was measured at two wavelengths (blue channel: ex. 409 nm, em. 460 nm; green channel: ex. 409 nm, em. 530 nm) on a PerkinElmer Envision HTS. For the analysis, the average signal of the cell-free wells at 460 nm and 530 nm was first subtracted from the blue and green channel data, respectively. The blue/green emission ratios were then calculated for each well, dividing the background-corrected blue emission values by the background-corrected green emission values. IC50 values were determined from these ratios using GraphPad Prism (Prism 5, GraphPad software, Inc.).

[4] = test system: estrogen receptor (ER)-mediated transcriptional activity; test: Inhibition of estrogen receptor (ER) signaling, ERE-tk-luc transfection assay in MCF-7 cells; assay type: cell-based; settings: Homo sapiens, MCF7, ERE-tk-luc luciferase readout, 24 h
Protocol: To determine the effect of the compounds on estrogen receptor (ER)-mediated transcriptional activity a transfection assay using the MCF-7 cell line was performed. A luciferase-coupled ERE-tk-luc construct was obtained from Dr. G. Reid (EMBL).
In brief, MCF-7 cells were maintained as described previously and seeded on the first experimental day at a concentration of 3500 cells/well in 100 μl medium and incubated under standard conditions for 24 h. Following this initial incubation period, transfection was carried out using 5 ng of the ERE-tk-luc construct (per well) and Exgene 500 transfection reagent (Fermentas) in a final buffered solution containing 150 mM NaCl and 20 mM Tris pH 8.4. The plates were then maintained for 3-4 hours until cell culture conditions in the incubator before compounds were added at 11× concentrations to yield the final desired compound concentrations in 0.5% DMSO (in the same manner as for the proliferation assays described previously).
After an additional 24 h incubation period the degree of inhibition of ER-signaling was determined via a luciferase readout. Cells were treated with Britelite™ plus solution according to the manufacturer's instructions (PerkinElmer, britelite plus, Ultra-High Sensitivity Luminescence Reporter Gene Assay System) and luciferase levels measured on an Envision HTS multilabel plate reader (PerkinElmer) in luminescence mode according to established protocols. Raw data were imported into an ActivityBase database (IDBS, ID Business Solutions) and IC50 values calculated using the IDBS program ActivityBase XE.

[5] = test system: caspase-3/7; test: Activation of apoptosis, Caspase-Glo 3/7 in HG-1 cells; assay type: cell-based; settings: caspase-3/7 activation, 24 h
Protocol: Activation of caspase-3/7 signal following treatment with test compounds was carried out using a Caspase-Glo® 3/7 kit (Promega). In brief, HG-1 cells were seeded at a concentration of 1000 cells/well in 50 μl medium into 96-well plates and incubated for 24 h under the conditions described previously. Compounds at various concentrations were then added to the wells (at all final concentrations 0.5% DMSO) and incubated for a further 24 h period. The plates were subsequently removed from the incubator and allowed to equilibrate to room temperature, after which 50 μl Caspase-Glo reagent was added to all wells, the plate shaken at 300 rpm for 30 s, and luminescence measured after a 30 min incubation period on an Envision HTS (PerkinElmer).

[6] = molecular target: T1, tubulin (Sus scrofa, UniProt P02550+P02554); test: Inhibition of in vitro tubulin polymerization; assay type: biochemical, porcine; settings: final absorbance 340 nm at 90 min
T1 construct: prepared in-house from porcine brain using a standard procedure involving cycles of polymerization/de-polymerization; from tissue; host or cells: porcine brain
T1 sequence (P02550 whole entry): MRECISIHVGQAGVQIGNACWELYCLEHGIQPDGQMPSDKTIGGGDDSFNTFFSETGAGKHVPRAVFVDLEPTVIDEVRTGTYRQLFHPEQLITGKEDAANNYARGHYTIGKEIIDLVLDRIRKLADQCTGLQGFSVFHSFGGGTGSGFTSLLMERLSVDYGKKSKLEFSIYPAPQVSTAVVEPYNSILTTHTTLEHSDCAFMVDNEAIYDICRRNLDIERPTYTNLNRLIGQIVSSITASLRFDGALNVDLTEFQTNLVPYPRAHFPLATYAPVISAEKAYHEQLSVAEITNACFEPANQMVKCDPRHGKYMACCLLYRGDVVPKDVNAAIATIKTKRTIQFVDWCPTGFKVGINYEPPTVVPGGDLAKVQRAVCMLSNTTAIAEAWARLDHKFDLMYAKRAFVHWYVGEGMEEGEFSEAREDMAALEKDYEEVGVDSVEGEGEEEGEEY
T1 sequence (P02554 whole entry): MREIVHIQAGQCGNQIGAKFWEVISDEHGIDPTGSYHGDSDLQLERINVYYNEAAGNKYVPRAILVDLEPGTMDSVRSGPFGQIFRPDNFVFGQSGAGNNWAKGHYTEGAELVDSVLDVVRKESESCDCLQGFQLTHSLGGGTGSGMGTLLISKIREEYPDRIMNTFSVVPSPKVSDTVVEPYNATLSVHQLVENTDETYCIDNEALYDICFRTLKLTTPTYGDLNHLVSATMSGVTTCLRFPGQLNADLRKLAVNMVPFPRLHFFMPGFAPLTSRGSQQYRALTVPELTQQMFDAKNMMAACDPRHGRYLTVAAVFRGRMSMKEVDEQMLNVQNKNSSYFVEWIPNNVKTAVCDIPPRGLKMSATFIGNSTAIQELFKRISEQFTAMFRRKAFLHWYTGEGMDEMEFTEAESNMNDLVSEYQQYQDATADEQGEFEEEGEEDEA
Protocol: To assess the degree of inhibition of in vitro tubulin polymerization, a tubulin solution (prepared in-house from porcine brain using a standard procedure involving cycles of polymerization/de-polymerization, see Castoldi & Popov (2003) Protein Expr. Purif. 32(1): 83-88) was incubated with varying concentrations of compounds under polymerizing conditions and kinetic experiments performed to determine the amount of polymerization (as measured by changes in OD at 340 nm) taking place over a 90 min period.
Compound solutions were diluted in double-distilled water to yield final 10× solutions containing 5% DMSO. 5 μl solutions were then added to the wells on a 384-well clear-bottom plate (Corning #3711, Corning Inc.) in preparation for the addition of tubulin. The tubulin solution (19.6 mg/ml, in 80 mM K-PIPES [pH 6.8], 1 mM MgCl2, 1 mM EGTA) was re-suspended to a final concentration of 4 mg/ml with ice cold G-PEM buffer (80 mM PIPES [pH 6.8], 2 mM MgCl2, 0.5 mM EGTA, 10% glycerol, 1 mM GTP) and maintained on ice for at least 1 min. 50 μl was then added to the pre-dispensed compound solutions, the plate orbital shaken on a medium setting for 5 s, and the first measurement begun immediately.
Experiments were carried out on a Safire^2™ monochromator (Tecan) preset to a stable temperature of 37° C.; the degree of polymerization was determined by measuring the absorbance of the solutions at 340 nm every minute over the 90 min cycle. Reported inhibition values were based on the final absorbance at 90 min and calculated with reference to a vehicle control (0.5% DMSO) using the minimum and maximum signals obtained for this sample.

EC50 [2] | EC50 [3] | IC50 [4] | EC50 [5] | inhibition at 10 µM [6] | SMILES | EC50 [1]
< 500 nM | < 500 nM | – | – | – | Cc1ccc(S(=O)(=O)Nc2cc(-c3ccsc3)ccc2C)cc1 [Example 8, 4-Methyl-N-(2-methyl-5-thiophen-3-yl-phenyl)-benzenesulfonamide] | < 500 nM
< 500 nM | – | < 500 nM | – | – | Cc1ccc(S(=O)(=O)Nc2cc(-n3cccc3)ccc2C)cc1 [Example 15, 4-Methyl-N-(2-methyl-5-pyrrol-1-yl-phenyl)-benzenesulfonamide] | < 500 nM
< 500 nM | – | < 500 nM | < 500 nM | – | Cc1ccc(S(=O)(=O)Nc2cc(-c3ccc(C#N)s3)ccc2C)cc1 [Example 47, N-[5-(5-Cyano-thiophen-2-yl)-2-methyl-phenyl]-4-methyl-benzenesulfonamide] | < 500 nM
< 500 nM | < 500 nM | – | < 500 nM | – | COc1ccc(S(=O)(=O)Nc2cc(-c3ccc(C#N)s3)ccc2C)cc1 [Example 51, N-[5-(5-Cyano-thiophen-2-yl)-2-methyl-phenyl]-4-methoxy-benzenesulfonamide] | < 500 nM
< 500 nM | – | – | < 500 nM | > 50% | COc1ccc(S(=O)(=O)Nc2cc(-c3cc(C#N)cs3)ccc2C)cc1 [Example 56, N-[5-(4-Cyano-thiophen-2-yl)-2-methyl-phenyl]-4-methoxy-benzenesulfonamide] | –
< 500 nM | – | < 500 nM | < 500 nM | < 20% | Cc1ccc(S(=O)(=O)Nc2cc(-c3ccc(C#N)cc3)ccc2C)cc1 [Example 60, N-(4′-Cyano-4-methyl-biphenyl-3-yl)-4-methyl-benzenesulfonamide] | –
< 500 nM | – | – | < 500 nM | < 20% | COc1ccc(S(=O)(=O)Nc2cc(-c3ccc(C#N)cc3)ccc2C)cc1 [Example 63, N-(4′-Cyano-4-methyl-biphenyl-3-yl)-4-methoxy-benzenesulfonamide] | –
< 500 nM | < 500 nM | – | – | – | COc1ccc(S(=O)(=O)Nc2cc(-c3csc(C#N)c3)ccc2C)cc1 [Example 73, N-[5-(5-Cyano-thiophen-3-yl)-2-methyl-phenyl]-4-methoxy-benzenesulfonamide] | < 500 nM
